Laboratory results reported in ChEMBL document CHEMBL1144330, “Novel pyrazinone mono-amides as potent and reversible caspase-3 inhibitors” (Bioorg Med Chem Lett, 2005).

Tests used:
Caspase-8 = Caspase-8 (Homo sapiens, UniProt Q14790); assay: Inhibitory concentration against recombinant human caspase-8 […]
Caspase-7 = target: T1, Caspase-7 (Homo sapiens, UniProt P55210); assay: Inhibitory concentration against recombinant human caspase-7 […]
T1 sequence (P55210 whole entry): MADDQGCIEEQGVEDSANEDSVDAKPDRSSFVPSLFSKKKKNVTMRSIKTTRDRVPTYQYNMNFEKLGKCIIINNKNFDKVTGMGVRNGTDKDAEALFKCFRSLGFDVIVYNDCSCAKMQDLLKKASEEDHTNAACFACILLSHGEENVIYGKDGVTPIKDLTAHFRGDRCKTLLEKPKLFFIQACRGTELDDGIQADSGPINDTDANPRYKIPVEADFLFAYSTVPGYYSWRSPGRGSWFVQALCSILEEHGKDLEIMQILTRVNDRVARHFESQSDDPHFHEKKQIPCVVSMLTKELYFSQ

Caspase-3 = target: T2, Caspase-3 (Homo sapiens, UniProt P42574); assay: Inhibitory concentration against recombinant human caspase-3 in neuronal precursor (NT2) cells
T2 sequence (P42574 whole entry): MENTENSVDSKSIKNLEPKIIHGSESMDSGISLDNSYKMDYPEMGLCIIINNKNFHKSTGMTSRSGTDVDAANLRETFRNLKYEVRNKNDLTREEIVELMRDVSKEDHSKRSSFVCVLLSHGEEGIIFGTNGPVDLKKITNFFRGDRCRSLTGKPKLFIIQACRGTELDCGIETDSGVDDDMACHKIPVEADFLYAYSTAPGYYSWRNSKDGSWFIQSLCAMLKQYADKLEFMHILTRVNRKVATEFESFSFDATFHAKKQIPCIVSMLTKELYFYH

NT2 = assay: Inhibitory concentration against camptothecin induced apoptosis in neuronal precursor (NT2) whole cells; format: functional, cell-based; conditions: Homo sapiens
Caspase-1 = target: T3, Caspase-1 (Homo sapiens, UniProt P29466); assay: Inhibitory concentration against recombinant human caspase-1 in neuronal precursor (NT2) cells
T3 sequence (P29466 whole entry): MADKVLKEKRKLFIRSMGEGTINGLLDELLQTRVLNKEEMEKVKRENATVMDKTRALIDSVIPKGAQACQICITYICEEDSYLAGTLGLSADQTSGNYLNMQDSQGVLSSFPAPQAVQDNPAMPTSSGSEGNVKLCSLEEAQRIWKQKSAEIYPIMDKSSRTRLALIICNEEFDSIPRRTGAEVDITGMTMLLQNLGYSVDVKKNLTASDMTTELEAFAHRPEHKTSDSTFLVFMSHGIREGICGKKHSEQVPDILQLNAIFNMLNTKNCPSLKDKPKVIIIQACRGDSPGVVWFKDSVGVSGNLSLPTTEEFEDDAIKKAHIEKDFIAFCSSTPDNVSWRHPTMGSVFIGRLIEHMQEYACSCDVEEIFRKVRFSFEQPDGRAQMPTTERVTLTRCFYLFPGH

Sequence of Caspase-8 (Q14790 217-374 limits assumed): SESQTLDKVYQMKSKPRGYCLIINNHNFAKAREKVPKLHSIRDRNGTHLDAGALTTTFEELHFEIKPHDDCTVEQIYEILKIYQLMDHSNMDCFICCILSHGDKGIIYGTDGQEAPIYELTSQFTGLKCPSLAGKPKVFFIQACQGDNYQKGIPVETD
Sequence of Caspase-8 (Q14790 385-479 limits assumed): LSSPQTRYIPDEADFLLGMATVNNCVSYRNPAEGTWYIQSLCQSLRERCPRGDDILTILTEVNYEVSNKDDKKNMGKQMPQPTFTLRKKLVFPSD

Structure (SMILES)	IC50 (Caspase-8)	IC50 (Caspase-7)	IC50 (Caspase-3)	IC50 (NT2)	IC50 (Caspase-1)
CCCCCCCCN(C)CNCC(=O)[C@H](CC(=O)O)NC(=O)C(CC)n1ccnc(NCc2nonc2C)c1=O (stereo not given in full)	> 10 µM	100 nM	9 nM	150 nM	25 nM
CCC(C(=O)N[C@@H](CC(=O)O)C(=O)CSCc1ccccc1)n1ccnc(NCCn2nc(C)cc2C)c1=O (stereo not given in full)	1.66 µM	> 10000 nM	160 nM	9480 nM	1820 nM
CCC(C(=O)N[C@@H](CC(=O)O)C(=O)CNCN1CCCCC1)n1cc(C(C)(C)C)nc(NCc2nonc2C)c1=O (stereo not given in full)	> 10 µM	130 nM	21 nM	290 nM	620 nM
CCCCCN(C)CNCC(=O)[C@H](CC(=O)O)NC(=O)C(CC)n1ccnc(NCc2nonc2C)c1=O (stereo not given in full)	> 10 µM	110 nM	13 nM	300 nM	48 nM
CC[C@@H](C(=O)N[C@@H](CC(=O)O)C(=O)CSCc1ccccc1)n1cccc(NC(=O)[C@H](CC(=O)O)NC(C)=O)c1=O	0.22 µM	10 nM	0.3 nM	5200 nM	60 nM
CCC(C(=O)N[C@@H](CC(=O)O)C(=O)CSCc1ccccc1)n1ccnc(NCc2nnc(-c3ccccc3)o2)c1=O (stereo not given in full)	4.92 µM	> 10000 nM	310 nM	52100 nM	980 nM
CCC(C(=O)N[C@@H](CC(=O)O)C(=O)CNCN1CCCC1)n1ccnc(NCc2nonc2C)c1=O (stereo not given in full)	6.22 µM	410 nM	33 nM	840 nM	290 nM
CCC(C(=O)N[C@@H](CC(=O)O)C(=O)CNCN(CC)CC)n1ccnc(NCc2nonc2C)c1=O (stereo not given in full)	> 10 µM	3240 nM	120 nM	3900 nM	1140 nM
CCC(C(=O)N[C@@H](CC(=O)O)C(=O)CCCc1ccccc1)n1cc(C(C)(C)C)nc(NCc2nonc2C)c1=O (stereo not given in full)	5.28 µM	140 nM	14 nM	1380 nM	5130 nM
CCCN(C)CNCC(=O)[C@H](CC(=O)O)NC(=O)C(CC)n1ccnc(NCc2nonc2C)c1=O (stereo not given in full)	> 10 µM	320 nM	17 nM	1420 nM	620 nM
CCC(C(=O)N[C@@H](CC(=O)O)C(=O)CSCc1ccccc1)n1ccnc(NCC2COc3ccccc3O2)c1=O (stereo not given in full)	8.22 µM	3280 nM	140 nM	30000 nM	87 nM
CCC(C(=O)N[C@@H](CC(=O)O)C(=O)CNCN1C2CCC1CC2)n1ccnc(NCc2nonc2C)c1=O (stereo not given in full)	9.22 µM	260 nM	23 nM	1450 nM	880 nM

Now from value to molecule:

IC50 (Caspase-8)	IC50 (Caspase-7)	IC50 (Caspase-3)	IC50 (NT2)	IC50 (Caspase-1)	Structure (SMILES)
0.99 µM	1000 nM	78 nM	3560 nM	150 nM	CCC(C(=O)N[C@H](C=O)CC(=O)O)n1ccnc(NCc2nonc2C)c1=O (stereo not given in full)
> 10 µM	540 nM	26 nM	1530 nM	56 nM	CCC(C(=O)N[C@@H](CC(=O)O)C(=O)CNCN(C)CC)n1ccnc(NCc2nonc2C)c1=O (stereo not given in full)
9.57 µM	750 nM	63 nM	8390 nM	460 nM	CCC(C(=O)N[C@@H](CC(=O)O)C(=O)c1ncc(-c2ccccc2)o1)n1ccnc(NCc2nonc2C)c1=O (stereo not given in full)
2.46 µM	730 nM	7.9 nM	1390 nM	220 nM	CCC(C(=O)N[C@@H](CC(=O)O)C(=O)CSCc1ccccc1)n1ccnc(NCc2nonc2C)c1=O (stereo not given in full)
9.26 µM	1040 nM	14 nM	1200 nM	64 nM	CCC(C(=O)N[C@@H](CC(=O)O)C(=O)CN[C@@H](C)c1ccccc1)n1ccnc(NCc2nonc2C)c1=O (stereo not given in full)
4.29 µM	130 nM	14 nM	1520 nM	8.7 nM	CCC(C(=O)N[C@@H](CC(=O)O)C(=O)CNCN1Cc2ccccc2C1)n1ccnc(NCc2nonc2C)c1=O (stereo not given in full)
